In ChEMBL document CHEMBL1201862, “PubChem BioAssay data set” (2004):
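Results reflect a 48-hour exposure of cells in 96-well plates to compound at five concentrations. Here, GI50 denotes the concentration required for 50% inhibition of growth.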 Activity calls are given as the source filed them. Cut-off read from the data, not from the text of the source: active = GI50 up to about 1.1 µM and inactive = higher.

Columns and labels:
Assay in all cases: growth of human tumour cells (NCI), 48 h
SNB-75 = test system: SNB-75
K562 = test system: K562
MDA-MB-435 = test system: MDA-MB-435
UO-31 = test system: UO-31
MOLT-4 = test system: MOLT-4
HCC 2998 = test system: HCC 2998
KM12 = test system: KM12
ACHN = test system: ACHN
HL-60 = test system: HL-60
786-0 = test system: 786-0
SK-MEL-2 = test system: SK-MEL-2
SF-268 = test system: SF-268
CAKI-1 = test system: CAKI-1
SN12C = test system: SN12C
MDA-MB-231 = test system: MDA-MB-231
NCI-H23 = test system: NCI-H23
EKVX = test system: EKVX
NCI-H460 = test system: NCI-H460
NCI-H226 = test system: NCI-H226

SMILES | GI50 (SNB-75) | GI50 (K562) | GI50 (MDA-MB-435) | GI50 (UO-31) | GI50 (MOLT-4) | GI50 (HCC 2998) | GI50 (KM12) | GI50 (ACHN) | GI50 (HL-60) | GI50 (786-0) | GI50 (SK-MEL-2) | GI50 (SF-268) | GI50 (CAKI-1) | GI50 (SN12C) | GI50 (MDA-MB-231) | GI50 (NCI-H23) | GI50 (EKVX) | GI50 (NCI-H460) | GI50 (NCI-H226)
CC1CC[C@@]2(OC1)OC1C[C@H]3[C@@H]4CC=C5C[C@@H](OC6OC(CO)C(OC7OC(CO)C(O)C(O)C7O)C(O)C6OC6OC(C)C(O)C(O)C6O)CC[C@]5(C)[C@H]4CC[C@]3(C)C1[C@@H]2C (some centres undefined) | 2.07 µM (inactive) | 0.466 µM (active) | 0.558 µM (active) | 0.48 µM (active) | 0.434 µM (active) | 0.484 µM (active) | 0.547 µM (active) | 1.24 µM (inactive) | 0.753 µM (active) | 0.49 µM (active) | 0.759 µM (active) | 0.593 µM (active) | 0.76 µM (active) | 0.635 µM (active) | 0.435 µM (active) | 0.783 µM (active) | 0.544 µM (active) | 0.685 µM (active) | 0.873 µM (active)
O=C(Cc1ccccc1CCO)NCCc1ccccc1 | > 100 µM (inactive) | > 100 µM (inactive) | > 100 µM (inactive) | 41.8 µM (inactive) | > 100 µM (inactive) | > 100 µM (inactive) | > 100 µM (inactive) | > 100 µM (inactive) | > 100 µM (inactive) | > 100 µM (inactive) | > 100 µM (inactive) | > 100 µM (inactive) | > 100 µM (inactive) | > 100 µM (inactive) | > 100 µM (inactive) | > 100 µM (inactive) | > 100 µM (inactive) | > 100 µM (inactive) | > 100 µM (inactive)
COc1ccc(NC(=O)C2=C(SC)C(=O)N=C2N)cc1 | > 100 µM (inactive) | > 100 µM (inactive) | > 100 µM (inactive) | > 100 µM (inactive) | > 100 µM (inactive) | > 100 µM (inactive) | > 100 µM (inactive) | > 100 µM (inactive) | > 100 µM (inactive) | > 100 µM (inactive) | 82 µM (inactive) | > 100 µM (inactive) | > 100 µM (inactive) | – | > 100 µM (inactive) | > 100 µM (inactive) | > 100 µM (inactive) | > 100 µM (inactive) | > 100 µM (inactive)
CC(=O)c1c2c(cc3c1CC1(C3)Cc3ccc4c(c3C1=O)CCC4)CCC2 (centres undefined) | 16.9 µM (inactive) | 6.58 µM (inactive) | 8.05 µM (inactive) | 55.5 µM (inactive) | 22.3 µM (inactive) | 29.2 µM (inactive) | 17.2 µM (inactive) | 65.3 µM (inactive) | 3.58 µM (inactive) | > 100 µM (inactive) | 34.8 µM (inactive) | > 100 µM (inactive) | 14.9 µM (inactive) | 48.2 µM (inactive) | 24.7 µM (inactive) | 34.9 µM (inactive) | 7.13 µM (inactive) | 38.6 µM (inactive) | > 100 µM (inactive)
C[C@H]1C2Cc3cc(N)ccc3[C@@]1(C)CCN2CCc1ccccc1 | 85.1 µM (inactive) | 28.8 µM (inactive) | 41.9 µM (inactive) | 52 µM (inactive) | 20.4 µM (inactive) | 9.08 µM (inactive) | 37.5 µM (inactive) | 41.2 µM (inactive) | 28.9 µM (inactive) | 49.9 µM (inactive) | 50.7 µM (inactive) | 76 µM (inactive) | 64.4 µM (inactive) | > 100 µM (inactive) | > 100 µM (inactive) | 32.8 µM (inactive) | 40.6 µM (inactive) | 33.1 µM (inactive) | 58.7 µM (inactive)
C/C(=N\Nc1nc2cccnc2s1)c1ccccn1 | 0.451 µM (active) | < 0.0149 µM (active) | 0.8 µM (active) | 0.0158 µM (active) | < 0.01 µM (active) | 1.07 µM (active) | 0.273 µM (active) | < 0.01 µM (active) | < 0.01 µM (active) | 0.0512 µM (active) | 2.98 µM (inactive) | 0.0284 µM (active) | < 0.0105 µM (active) | < 0.01 µM (active) | < 0.01 µM (active) | 0.0228 µM (active) | < 0.01 µM (active) | 0.0369 µM (active) | < 0.0155 µM (active)
CC12CC3OC(=O)C1COC14OC5(C2C1=O)C(O)(CCC1C4CC(O)C2(O)CC=CC(=O)C12C)C(=O)OC35C (centres undefined) | > 100 µM (inactive) | > 100 µM (inactive) | 68.4 µM (inactive) | > 100 µM (inactive) | > 100 µM (inactive) | > 100 µM (inactive) | > 100 µM (inactive) | > 100 µM (inactive) | > 100 µM (inactive) | > 100 µM (inactive) | > 100 µM (inactive) | > 100 µM (inactive) | > 100 µM (inactive) | > 100 µM (inactive) | > 100 µM (inactive) | > 100 µM (inactive) | > 100 µM (inactive) | > 100 µM (inactive) | > 100 µM (inactive)
O=C(NC(Cl)(C(F)(F)F)C(F)(F)F)c1ccc(F)cc1 | 0.789 µM (active) | > 100 µM (inactive) | > 100 µM (inactive) | > 100 µM (inactive) | > 100 µM (inactive) | > 100 µM (inactive) | > 100 µM (inactive) | > 100 µM (inactive) | > 100 µM (inactive) | > 100 µM (inactive) | > 100 µM (inactive) | > 100 µM (inactive) | > 100 µM (inactive) | > 100 µM (inactive) | > 100 µM (inactive) | > 100 µM (inactive) | > 100 µM (inactive) | > 100 µM (inactive) | > 100 µM (inactive)
CCOC(=O)/C=C(/C(=O)OCC)n1cc(C)c(=O)n(/C(=C/C(=O)OCC)C(=O)OCC)c1=O | 9.73 µM (inactive) | 1.58 µM (inactive) | 2.5 µM (inactive) | 5.31 µM (inactive) | 1.32 µM (inactive) | 9.48 µM (inactive) | 13.9 µM (inactive) | 1.89 µM (inactive) | 0.255 µM (active) | 1.28 µM (inactive) | 14.7 µM (inactive) | 8.45 µM (inactive) | 0.887 µM (active) | 2.98 µM (inactive) | 3.4 µM (inactive) | 4.03 µM (inactive) | 3.06 µM (inactive) | 16.1 µM (inactive) | 6.01 µM (inactive)
CN(C)CCNC(=O)c1cccc2nc3c(C(=O)NCCN(C)C)cccc3nc12 | 2.63 µM (inactive) | 0.621 µM (active) | 1.21 µM (inactive) | 1.41 µM (inactive) | 0.43 µM (active) | 1.15 µM (inactive) | 1.26 µM (inactive) | 0.668 µM (active) | 0.713 µM (active) | 0.393 µM (active) | 1.77 µM (inactive) | 0.782 µM (active) | 2.14 µM (inactive) | 0.918 µM (active) | 1.14 µM (inactive) | 1.19 µM (inactive) | 1.49 µM (inactive) | 0.82 µM (active) | 1.46 µM (inactive)
Cn1c(C(O)C2(c3cccnc3)SCCCS2)cc2ccccc21 (centres undefined) | 73.3 µM (inactive) | 41.1 µM (inactive) | 90.2 µM (inactive) | 37.2 µM (inactive) | – | > 100 µM (inactive) | 71.4 µM (inactive) | > 100 µM (inactive) | 50.5 µM (inactive) | > 100 µM (inactive) | > 100 µM (inactive) | > 100 µM (inactive) | > 100 µM (inactive) | > 100 µM (inactive) | > 100 µM (inactive) | 47.8 µM (inactive) | 72.3 µM (inactive) | 99.3 µM (inactive) | > 100 µM (inactive)
O=C1C=CC(=O)C(N(CCO)CCO)=C1.O=C1C=CC2(O)OCCN(CCO)C2=C1 | > 100 µM (inactive) | > 100 µM (inactive) | > 100 µM (inactive) | > 100 µM (inactive) | > 100 µM (inactive) | > 100 µM (inactive) | > 100 µM (inactive) | > 100 µM (inactive) | > 100 µM (inactive) | > 100 µM (inactive) | > 100 µM (inactive) | > 100 µM (inactive) | > 100 µM (inactive) | > 100 µM (inactive) | > 100 µM (inactive) | > 100 µM (inactive) | > 100 µM (inactive) | > 100 µM (inactive) | > 100 µM (inactive)
CC[C@@]1(O)C(=O)OCc2c1cc1n(c2=O)Cc2c-1nc1ccccc1c2/C=N/NC(=O)C[N+](C)(C)C | 0.525 µM (active) | 2.86 µM (inactive) | 16.1 µM (inactive) | 0.944 µM (active) | 0.207 µM (active) | 4.59 µM (inactive) | > 53.8 µM (inactive) | 0.277 µM (active) | 0.668 µM (active) | 0.662 µM (active) | > 83.6 µM (inactive) | 0.45 µM (active) | 0.578 µM (active) | 0.0857 µM (active) | > 100 µM (inactive) | 0.495 µM (active) | 47.9 µM (inactive) | 0.15 µM (active) | 0.802 µM (active)
C=CC(C)(C)NC(C(=O)N1CCC[C@H]1c1nc(-c2nc(C(=O)OCC=C(C)C)c(C)o2)c(C)o1)C(C)C (some centres undefined) | 33.3 µM (inactive) | > 60.7 µM (inactive) | > 45.1 µM (inactive) | 21.8 µM (inactive) | 47.5 µM (inactive) | > 100 µM (inactive) | > 54.2 µM (inactive) | > 45.9 µM (inactive) | 17.1 µM (inactive) | > 58.1 µM (inactive) | > 45.3 µM (inactive) | > 100 µM (inactive) | > 55.2 µM (inactive) | > 47.8 µM (inactive) | 47 µM (inactive) | > 100 µM (inactive) | > 52 µM (inactive) | 31.9 µM (inactive) | > 48.8 µM (inactive)
